Patent publication US20230093131A1, “ASSESSING AND TREATING ALCOHOL-ASSOCIATED LIVER DISEASE” (Mayo Foundation for Medical Education and Research, priority 2020, published 2023)
“Also recorded” adds a separate entry of the source.

Key:
[1] = test system: S1P receptors on primary human macrophages; experiment: EV-activated macrophage inflammation (AH EVs on PBMC-derived macrophages); type: cell-based
Procedure: FIG. 14: EV-activated macrophage inflammation is SIP-dependent. A) TNF-α and B) IL-1β responses in primary human macrophages from AH subjects treated with EVs derived from HD (HD EV) or AH (AH EV) for 4 hours showing a significant increase in both cytokines by AH-EVs.
PBMC-derived macrophages were treated with EVs derived from HD or AH subjects.

[2] = test system: alcohol fed/LPS C57BL/6 mice; experiment: Murine chronic alcohol feeding/LPS model with iBET151; type: in vivo, mouse
Procedure: FIG. 23: Bromodomain Inhibitor iBET151 Attenuates Liver CXCL Production and Neutrophil Infiltration in a Murine Alcohol Feeding/LPS Model. A) Schematic of alcohol feeding protocol. Mice were fed 5% alcohol diet or pair-fed control diet for 10 days. A subset of mice also received IP injection of iBET151 compound. Alcohol fed mice also received IP injection of LPS on day 11, 8 hours before sacrifice (n=6-8 in pair-fed groups, n=12-14 in alcohol fed groups). […] This response was attenuated by iBET151 injections. Expression levels were normalized to average expression of pair-fed control mice. C) IHC for MPO (neutrophil marker) is shown, with number of neutrophils per low power fields on y-axis. […] For all analysis, two-way ANOVA was performed on normalized expression values for qPCRs or cell counts for IHC staining or ALT values, with Post-hoc Tukey's multiple comparisons correction.
WT C57BL/6 mice (10-12 weeks) were purchased from Envigo Laboratories. Mice were subjected to chronic alcohol feeding to induce alcohol-induced liver injury with modification to the NIAAA model (see, e.g., Kong et al., Sci. Rep., 7(1):9292 (2017)). Briefly, mice were acclimated to liquid diet for 5 days, and were fed either 5% alcohol containing liquid diet or isocaloric pair-fed control diet. On Day 11, LPS (Invivogen tlrl-eblps) was intraperitoneally (IP) injected at 4 mg/kg to alcohol-fed mice. PBS of the same volume was given to pair-fed mice. All mice were sacrificed 8 hours later. A subset of mice, concurrent with alcohol or pair-feeding, was given injection of iBET151 daily. Mice were injected IP with iBET151 (6 mg/kg) in 10% Kleptose 2% DMSO solution or equal volume of carrier solution. On Day 11, drug or vehicle was administered 1 hour before LPS injection.
To generate an in vivo model with more exaggerated inflammation that could simulate human AH, a protocol of the chronic alcohol feeding model was modified by substituting the alcohol binge with a single LPS injection (FIG. 23A; see, also, Kong et al., Sci. Rep., 7(1):9292 (2017)). […] There was a significant increase in serum alanine aminotransferase (ALT) in alcohol fed/LPS mice (FIG. 23D). To assess the role of super enhancer activation in alcohol fed/LPS induced liver inflammation, the pan-BET inhibitor iBET151 was given to mice as daily IP injections alongside alcohol feeding or LPS injection.

LSEC CXCL expression = experiment: CXCL expression (qPCR) in LSECs pretreated with inhibitor, with or without TNFα stimulation; type: cell-based, human
Procedure: A) LSECs were pretreated with iBET151 (0-50 M) (n=4). CXCL1, 6, and 8 expression levels were assessed by qPCR. Expression levels were normalized to basal condition and log10 fold change values were plotted. One-way matched-pairs ANOVA analysis was performed with Post-hoc Dunnett's multiple comparison correction.
LSECs were pretreated with iBET151 (0-50 M) (n=4). CXCL2, 3, and 5 expression levels were assessed by qPCR. Expression levels were normalized to basal condition and log10 fold change values were plotted. One-way matched-pairs ANOVA analysis was performed with Post-hoc Dunnett's multiple comparison correction. Error bars indicate SD.
Primary human LSECs were purchased from ScienCell (Cat #5000) and cultured using standard cell culture techniques. Where appropriate, LSECs underwent TNFα (Peprotech, 300-01A) stimulation at 20 ng/mL. For experiments with BRD4 inhibitor, iBET151 (Cayman Chemical 11181), low passage LSECs were plated at 70% confluency and cultured overnight. Next, LSECs were serum starved for 2 hours in low serum medium (0.5% FBS in basal endothelial medium (Lonza CC-3121)). Inhibitors were added at concentrations indicated to low-serum medium, and cells were incubated in inhibitor containing medium for 2 hours. After inhibitor treatment, medium change was performed with TNFα (Peprotech 300-01A) at 20 ng/mL or control low-serum medium for 90 minutes incubation. LSECs were then collected for analysis. […] RNA was extracted and qPCR performed for expression of CXCLs.

NF-κB = experiment: ChIP-qPCR for NF-κB binding at CXCL super enhancer and CXCL1 promoter sites in LSECs; type: cell-based, human; settings: with and without TNFα, after inhibitor pretreatment, FIG. 20C, 20D
Procedure: FIG. 20: Bromodomain inhibitors suppress expression of CXCLs by inhibition of transcription factor binding at CXCL super enhancer and promoter sites. A) LSECs were pretreated with iBET151 ([…]) (n=4). CXCL1, 6, and 8 expression levels were assessed by qPCR. Expression levels were normalized to basal condition and log10 fold change values were plotted. One-way matched-pairs ANOVA analysis was performed with Post-hoc Dunnett's multiple comparison correction. B and C) ChIP-qPCR assays for BRD4 binding (B) or NF-κB binding (C) with and without TNFα stimulation was assessed at CXCL super-enhancer and CXCL1 promoter sites after pretreatment with iBET151. D and E) Same experiments were repeated with Celastrol. Enrichment for either CXCL1 promoter (Promoter) or CXCL super enhancer (Super Enhancer) sequence was examined. Sequence enrichment was normalized to input. Box plots show […] quartiles and third quartiles; whiskers show maximum and minimum values. Two-way matched-pairs ANOVA was performed on log-transformed input percentage, with Post-hoc Sidak's multiple comparisons correction (n=3).
LSECs were treated with appropriate conditions as outlined separately, and underwent CHIP according to Millipore High-Sens ChIP kit (Millipore MAGNA0025) manufacture protocols. […]

LSECs = experiment: iBET151 LSEC cytotoxicity assay (IncuCyte); type: cell-based, human; settings: iBET151 and/or TNFα, ~30 minute intervals for 10 hours, FIG. 22
Procedure: FIG. 22: iBET151 LSEC cytotoxicity assay. IncuCyte system was utilized to image cells and assess for cytotoxicity. Dying cells (black arrows) are stained green by fluorescent dye, and green cells are counted for each low power image field. Cells were pretreated with control medium or iBET151 and/or TNFα, and quantification for the percentage of dead cells was done at ˜30 minutes intervals for 10 hours starting at 15 minutes. Images shown were acquired after 4 hours of incubation. […] Error bars indicate SD, n=3.

[3] = test system: BET proteins (BRD2, 3, 4 and T); settings: Seal et al., Bioorg. Med. Chem. Lett. 2012; cited from earlier work
BRD4 = target: T1, BRD4 (Homo sapiens, UniProt O60885); experiment: ChIP-qPCR for BRD4 binding at CXCL super enhancer and CXCL1 promoter sites in LSECs; type: cell-based; settings: with and without TNFα, after inhibitor pretreatment, FIG. 20B, 20E
T1 construct: Soluble chromatin was aliquoted and immunoprecipitated with magnetic beads with antibodies for BRD4 (Abcam ab128874); host or cells: primary human liver sinusoidal endothelial cells (LSECs)
Procedure: B and C) ChIP-qPCR assays for BRD4 binding (B) or NF-κB binding (C) with and without TNFα stimulation was assessed at CXCL super-enhancer and CXCL1 promoter sites after pretreatment with iBET151. D and E) Same experiments were repeated with Celastrol. Enrichment for either CXCL1 promoter (Promoter) or CXCL super enhancer (Super Enhancer) sequence was examined. Sequence enrichment was normalized to input. Box plots show top quartiles and third quartiles; whiskers show maximum and minimum values. Two-way matched-pairs ANOVA was performed on log-transformed input percentage, with Post-hoc Sidak's multiple comparisons correction (n=3).
LSECs were treated with appropriate conditions as outlined separately, and underwent CHIP according to Millipore High-Sens ChIP kit (Millipore MAGNA0025) manufacture protocols. Briefly, cells were crosslinked with formaldehyde (1% final concentration) followed by glycine treatment (100 mM) for 5 minutes each. Cells were washed, collected, and pelleted with centrifugation, and were then lysed with cell lysis buffer. Cells were repelleted and underwent nuclear lysis with provided nuclear lysis buffer, and DNA was sheared with ultrasonification. Soluble chromatin was aliquoted and immunoprecipitated with magnetic beads with antibodies for BRD4 (Abcam ab128874), NF-κB (Cell signaling 8242S), or H3K9me3 (Abcam ab8898) with appropriate isotype controls. […]

AH patients = experiment: EV counts in AH patients after IL-22 treatment; type: in vivo, human
Excerpt: (§1) IL-22 is being investigated as a potential therapy in AH due to its hepatoprotective effects. To investigate if IL-22 can inhibit ethanol-induced EV release, HepG2Cyp2E1 (human hepatoma cells that can metabolize ethanol due to the enforced expression of cytochrome P450 2E1) cells were pretreated with IL-22 prior to the addition of ethanol. Subsequently, EVs were isolated from cell culture supernatants by UTC and quantified with NTA. Similarly, IL-22 reduced EV counts in AH patients after treatment.

HepG2Cyp2E1 cells = experiment: Ethanol-induced EV release from HepG2Cyp2E1 cells (UTC isolation, NTA count); type: cell-based, human; settings: HepG2Cyp2E1 cells pretreated with IL-22 prior to ethanol
Excerpt: as §1

[4] = alcohol fed/LPS mice, iBET151 6 mg/kg IP daily, FIG. 23B

In the case of `CCCCCCCCc1ccc(CCC(N)(CO)CO)cc1` [FTY720], the “AH EV-activated proinflammatory signaling in macrophages” value ([1]; PBMC-derived macrophages treated with AH EVs) is reported as “significantly inhibited”, the “TNF-α response to AH EVs” value ([1]; primary human macrophages from AH subjects, EVs for 4 hours, FTY 720 1 μM, FIG. 14A) is reported as “significantly reduced” and the “IL-1β response to AH EVs” value ([1]; primary human macrophages from AH subjects, EVs for 4 hours, FTY 720 1 μM, FIG. 14B) is reported as “significantly reduced”.

With `COc1cc2c(cc1-c1c(C)noc1C)ncc1[nH]c(=O)n([C@H](C)c3ccccn3)c12` [iBET151] the “cleaved caspase 3 level in liver (Western blot)” value ([2]; alcohol fed/LPS mice given iBET151, FIG. 26A) was “decrease; also recorded: attenuated”, the “hepatic expression of Cxcl1 (qPCR)” value [2, 4] was “significantly decreased” and the “hepatic expression of Cxcl2 (qPCR)” value [2, 4] was “significantly decreased”. For the same molecule, the “neutrophil infiltration of the liver (Ly6g expression, MPO IHC)” value ([2]; alcohol fed/LPS mice, iBET151 6 mg/kg IP daily, FIG. 23B, 23C) was “decreased”, the “steatosis (BODIPY 493/503 stain)” value ([2]; alcohol fed/LPS mice, iBET151 6 mg/kg IP daily, FIG. 25, 6 mg/kg) was “decreased; also recorded: attenuated” and the “liver CXCL chemokine production/elevation (qPCR)” value ([2]; alcohol feeding and LPS injection, IP iBET151, figure legends FIG. 19, FIG. 23B) was “attenuated”. The “neutrophil marker Ly6g (qPCR)” value ([2]; alcohol/LPS mice, IP iBET151, figure legends FIG. 19, FIG. 23B) was “reduced; also recorded: attenuated”, the “Malondialdehyde (MDA), lipid peroxidation, in mice livers” value ([2]; pair-fed or EtOH+LPS, vehicle or iBET151, FIG. 26B) was “no difference among treatment groups” and the “8-Hydroxy-2′-deoxyguanosine (8-OHdG), DNA oxidation, in mice livers” value ([2]; pair-fed or EtOH+LPS, vehicle or iBET151, FIG. 26C) was “no difference among treatment groups”. For the same molecule, the “CXCL expression after TNFα stimulation” value (LSEC CXCL expression; HHSEC pretreated with varying amounts of iBET151, FIG. 18) was “suppresses”, the “CXCL2, 3, 5 expression (qPCR)” value (LSEC CXCL expression; LSECs pretreated with iBET151 (0-50 M), with TNFα and without TNFα, FIG. 21) was “linear trend for decreasing” and the “LSEC CXCL expression” value (LSEC CXCL expression; in vitro, in the presence of iBET151, FIG. 20A, 21A, iBET151 0-50 M, TNFα 20 ng/mL) was “significantly decreased”. For the same molecule, the “NF-κB binding at CXCL super enhancer and CXCL1 promoter sites (ChIP)” value (NF-κB) was “trend for decreased”, the “cytotoxicity (percentage of dead cells)” value (LSECs) was “without significant cytotoxicity; also recorded: no significant difference among treatment groups” and the “activity against both bromodomains (BD) of all four BET proteins” value [3] was “highly specific activity”. The “BRD4 occupancy/binding at CXCL super enhancer and CXCL1 promoter sites (ChIP)” value (BRD4) was “inhibitory effect”.

B1: IL-22: IL-22 polypeptide, hepatoprotective cytokine investigated as potential therapy in AH (protein, UniProt Q9GZX6 34-179, looked up)
Interleukin-22: APISSHCRLDKSNFQQPYITNRTFMLAKEASLADNNTDVRLIGEKLFHGVSMSERCYLMKQVLNFTLEEVLFPQSDRFQPYMQEVVPFLARLSNRLSTCHIEGDDLHIQRNVQKLKDTVKKLGESGEIKAIGELDLLFMSLRNACI
For B1, the “EV counts in AH patients” value (AH patients) was “reduced” and the “ethanol-induced EV release” value (HepG2Cyp2E1 cells) was “significantly inhibited”.
